Assay results taken from patent US11879145B2, “Reagents and methods for replication, transcription, and translation in semi-synthetic organisms” (The Scripps Research Institute, priority 2019, dated 2024).

Tested on: sfGFP^151(AXC)
Assay: Optimization of unnatural ribonucleotide triphosphate concentrations (sfGFP fluorescence and protein shift)
Assay type: cell-based, E. coli
Protocol: Examples 1A, 1B, and 2 identified dCNMO-dTPT3 as a competent UBP for the storage of information, and TAT1TP and NaMTP or 5FMTP as competent ribonucleoside triphosphates for its retrieval. Upon transformation with the same plasmids used above, 10 μM dTPT3TP and 25 μM dCNMOTP were provided in the growth media, which was then also supplemented with TAT1TP at concentrations ranging from 100 μM to 12.5 μM, and either NaMTP or 5FMTP at concentrations ranging from 200 μM to 12.5 μM, all in series of 2-fold dilutions, and after the addition of 1 mM AzK, the cells were induced to express sfGFP. […] In both cases, fluorescence was higher at lower concentrations of NaMTP or 5FMTP (due to increased production of contaminating natural sfGFP, see below). Additionally, cells generally produced higher fluorescence at higher concentrations of TAT1TP. […] Protein production was again quantified via the gel shift assay (FIG. 6C and FIG. 6D). Generally, as the concentration of NaMTP decreased below 200 μM, incrementally lower fidelity of AzK incorporation into sfGFP was observed, while with use of 5FMTP this reduction in fidelity was only observed below a concentration of 50 μM. Clearly lower concentrations of 5FMTP can be used without compromising fidelity. Cells provided with a high concentration of 5FMTP (≥50 µM) produced high protein shifts at all concentrations of TAT1TP explored (100 μM, 50 μM, 25 μM, or 12.5 μM).
Optimization of in vivo Translation Conditions. An overnight culture of the SSO strain ML2 carrying the pGEX-MbPylRS TetR plasmid was grown in 2×YT supplemented with 50 mM potassium phosphate, […] chloramphenicol and 100 μg/mL carbenicillin (herein referred to in this section as “media”), then diluted back to an OD600 of 0.03 in the same media and grown to an OD600 of 0.4-0.6. The culture was then chilled with shaking over ice-water for 15 min then pelleted by centrifugation at 3,200×g for 10 min. Cells were then resuspended and washed with ice-cold ddH2O twice then resuspended in ice-cold ddH2O to an OD600 of 55-65. The electrocompetent cells (50 μL) and ˜1 ng of Golden Gate assembled plasmid with the UBP within the sfGFP and tRNAPyl genes (see Golden Gate Assembly of Plasmids) were transferred to a pre-chilled electroporation cuvette (0.2-cm-gap), then electroporated (Gene Pulser II; Bio-Rad) according to manufacturer's recommendations (voltage […], capacitor 2.5 μF, resistor 200Ω), and then immediately diluted with 950 μL of media. […] The culture was monitored for cell growth (Envision 2103 Multilabel Plate Reader with a 590/20 nm filter) and then collected at an OD600˜1.0. […]

What does the source list for COc1cc(C)c(F)cc1[C@@H]1O[C@H](COP(=O)(O)OP(=O)(O)OP(=O)(O)O)[C@@H](O)[C@H]1O [Compound 5FMTP]?
Concentration for combined optimization of protein purity and yield (5FMTP and TAT1TP pair): 50 µM; XTP concentration below which lower fidelity of AzK incorporation into sfGFP was observed (with TAT1TP 12.5-100 μM): 50 µM
